Measurements from US20250082720A1, “NEW PEPTIDE AND USES THEREOF” (Neo Cremar Co., Ltd., priority 2021, published 2025).

Legend:
C2C12 cells [1] = test: C2C12 myoblast proliferation (MTT method); assay type: cell-based, mouse; details: for increase in cell proliferation compared to cells without peptide treatment: C2C12, peptide 1000 nM, 1 day, MTT, FIG. 4
Protocol: C2C12 cells, a mouse myoblast line, were cultured in Dulbecco's Modified Eagle's Medium (DMEM)+10% fetal bovine serum (FBS)+1% penicillin/streptomycin (P/S). To validate the effect of MIF peptide, C2C12 cells (2×10^3 cells/ml) were placed in a 12 well cell culture dish and attached for 24 hours, and MIF2 or Ac-MIF2-NH2 peptide (1000 nM) was treated for 1 day to observe cell proliferation by MTT method. The medium was replaced every 2 days, and the cells were cultured at 37° C.
(§1) To validate cell proliferation, the culture medium of the cells was removed, the cells were washed with DMEM, 500 μl of MTT reagent (0.5 mg/ml) dissolved in phosphate buffered saline (PBS) was added to each well, and the cells were left at 37° C. for 1 hour. The reaction solution was removed, and 1000 μl of DMSO was added to each well. Purple formazan crystals were completely dissolved in DMSO, and the absorbance was measured at 540 nm.

3T3L1 cells [2] = test: 3T3L1 cell proliferation (MTT method); assay type: cell-based, mouse; details: 3T3L1, peptide 1000 nM, 2 days, FIG. 13A
Protocol: 3T3L1 cells, mouse fibroblasts, were cultured in Dulbecco's Modified Eagle's Medium (DMEM)+10% fetal bovine serum (FBS)+1% penicillin/streptomycin (P/S). To validate the effect of MIF peptide, 3T3L1 cells (2×10^3 cells/ml) were placed in a 12-well cell culture dish, attached for 24 hours, and treated with MIF peptide (1000 nM) for 2 days, followed by observation of cell proliferation by MTT method. The medium was replaced once every 2 days, and the cells were cultured at 37° C.
as §1

3T3L1 cells [3] = test: Expression of FMOD, MSTN and lipogenesis-related factors in 3T3L1 cells (real-time PCR, Western blot); assay type: cell-based, mouse; details: 3T3L1, compared to untreated cells, FIG. 13C
Protocol: After adding 1 ml of TRIzol™ reagent, the cells were crushed using a sonicator. After centrifugation of the crushed sample (12,000 rpm, 10 min, 4° C.), the supernatant was transferred to a new tube, added with 200 μl of chloroform, and left at room temperature for 10 minutes. After 10 minutes, centrifugation (12,000 rpm, 10 min, 4° C.) was performed, yielded a transparent supernatant. Next, 500 μl of isopropanol was added, the mixture was left for 10 minutes, and centrifugation was performed to obtain RNA pellets. […] Total RNA volume was measured by nanodrop, and the 18s and 28s bands were detected in 1.2% agarose gel. cDNA was synthesized with 2 μg of total RNA, random hexamer primers, and reverse transcriptase (25° C.: 10 min, 37° C.: 120 min, 85° C.: 5 min).
Real-time PCR (RT-PCR) was performed for detecting gene expression. For observation of real-time gene expression, gene expression was analyzed using the Power SYBR Green PCR Master Mix, which includes fluorescent materials of SYBR green (7500 Real-time PCR system). […] Gene expression values were analyzed through the analysis of c(t) values obtained through real-time PCR analysis (fold change 2-ΔΔCt formula). Setting the gene expression value of the untreated cells to 1, the gene expression value of the treated cells was calculated. […]

C2C12 cells [4] = test: Scratch experiment, degree of cell recovery; assay type: cell-based, mouse; details: C2C12 100% grown, 1000 nM peptide, 1 day
Protocol: When the C2C12 cells were 100% grown, cells were scratches on the surface, treated with 1000 nM MIF2 or Ac-MIF2-NH2 peptides, and cultured for 1 day, followed by observation for a degree of cell recovery.

3T3L1 cells [5] = test: Adipodifferentiation of 3T3L1 cells (Oil Red O staining); assay type: cell-based, mouse; details: 3T3L1, adipocyte differentiation medium, 4 days, FIG. 13B
Protocol: For differentiation of 3T3L1 cells into adipocytes, when the cells grew about 100% or more, they were replaced with differentiation medium (DMEM+10% FBS+1% P/S+10 μg/ml insulin+1 μM dexametazone+0.5 μM IBMX (3-isobutyl-1-methylxanthine)) and cultured for 2 days. After 2 days, MIF peptide was treated in a medium including 10 μg/ml insulin to induce cell differentiation.
3T3L1 cells were treated with peptides and differentiated for 4 days, then the medium was removed, and the cells were washed with normal saline, treated with 10% formaldehyde, and left for 10 minutes. After 10 minutes, Oil-red O staining agents (6 ([…] Oil-red O reagent+1 ml 100% isopropanol): 4 (distilled water)) were treated and left for 1 hour. After 1 hour, cells were washed with normal saline and then observed under a microscope. To measure the Oil-red O stained in the intracellularly differentiated cells, 100% isopropanol was added and collected, followed by measurement at 510 nm.

C2C12 cells [6] = test: Expression of myodifferentiation-related factors (real-time PCR, Western blot, immunocytochemistry); assay type: cell-based, mouse
Protocol: After adding 1 ml of TRIzol™ reagent, the cells were crushed using a sonicator. After centrifugation of the crushed sample (12,000 rpm, 10 min, 4° C.), the supernatant was transferred to a new tube, added with 200 μl of chloroform, and left at room temperature for 10 minutes. After 10 minutes, centrifugation (12,000 rpm, 10 min, 4° C.) was performed, yielded a transparent supernatant. Next, 500 μl of isopropanol was added, the mixture was left for 10 minutes, and centrifugation was performed to obtain RNA pellets. After washing by adding 70% ethanol (distilled water treated with ethanol+diethylpyrocarbonate (hereinafter referred to as DEPC)) to the RNA pellets, complete removal and drying were followed. The dried transparent RNA was added with DEPC-treated distilled water and then stored at −80° C. Total RNA volume was measured by nanodrop, and the 18s and 28s bands were detected in 1.2% agarose gel. cDNA was synthesized with 2 μg of total RNA, random hexamer primers, and reverse transcriptase (25° C.: 10 min, 37° C.: 120 min, 85° C.: 5 min).
Real-time PCR (RT-PCR) was performed for detecting gene expression. For observation of real-time gene expression, gene expression was analyzed using the Power SYBR Green PCR Master Mix, which includes fluorescent materials of SYBR green (7500 Real-time PCR system). The PCR primer was designed with Primer 3 software (http://frodo.wi.mit.edu) according to the nucleotide sequence secured from NCBI GenBank. PCR was performed 40 times at 95° C. for 10 minutes, again at 95° C. for 33 seconds, at gene primer temperature (tm) for 33 seconds, and at 72° C. for 33 seconds. Gene expression values were analyzed through the analysis of c(t) values obtained through real-time PCR analysis (fold change 2-ΔΔCt formula). Setting the gene expression value of the untreated cells to 1, the gene expression value of the treated cells was calculated. In the analysis of gene c(t) values, normalization was conducted with the glyceraldehyde-3-phosphate dehydrogenase (GAPDH).
The medium of cultured C2C12 cells was removed and washed once with PBS. The washed cells were treated with 4% formaldehyde (Sigma), fixed for 15 minutes, then washed using PBS, added with 0.2% trypton X-100 (Sigma), and left for 5 minutes. After washing again using PBS, adding 1% normal goat serum, and leaving for 30 minutes, the primary antibody (MYOD, myogenin (MYOG): myosin light chain (MYL2); 1:50) was added to carry out a reaction at 4° C. for 14 hours. The antibodies were removed, washing was performed 3 times with PBS for 10 minutes, and then the cells were left with secondary antibody (Alexa Fluor 488 goat anti-Mouse & rabbit SFX kit t) for 1 hour. After 1 hour, the antibodies were removed, washing was performed with PBS for 10 minutes, the nuclei were stained with 4′,6-diamidino-2-phenylindol (DAPI), and the expression of the proteins was observed using fluorescence microscopy.
(1) The medium of cultured C2C12 cells was removed, followed by washing with PBS. After adding LIPA buffer and protease inhibitor to the washed cells, the proteins included in the supernatant were collected after centrifugation for 10 minutes at 12000 rpm. 40 μg of the extracted proteins were subjected to electrophoresis in 8 to 10% acrylamide gel and then transferred to a polyvinylidene fluoride (PVDF) membrane (Milipore). These were blocked with 3% skim milk or bovine serum albumin (BSA) at room temperature for 1 hour. Afterwards, primary antibody diluted in 1% skim milk or BSA (Pax7; 1:500, MYOD; 1:500, MYOG; 1:400, MYL2; 1:1000, MYH; 1:500, MSTN; 1:1000, β-actin; 1:1000, MuRF1; 1:400, and Atrogin; 1:1:400) was added and reacted at 4° C. for over 16 hours. After 16 hours, cells were washed three times with TBST (Tris-buffered saline with Tween 20) and reacted with secondary antibody with horseradish peroxidase (HRP) conjugated at room temperature for 1 hour. […]

C2C12 cells [7] = test: Myodifferentiation: root canal formation and fusion index (Giemsa staining); assay type: cell-based, mouse; details: for increase in fusion index compared to untreated cells: C2C12, differentiation medium with peptide; for root canal formation compared to untreated cells: C2C12, differentiation medium
Protocol: When C2C12 cells were 70% grown, media were replaced with myodifferentiation medium added with MSTN protein (1 ng), Ac-MIF2-NH2 (1000 nM), and Ac-MIF2-NH2 (1000 nM)+MSTN protein (1 ng) from proliferation medium, followed by culture for 3 days.
When the cells grew more than 70% for differentiation of myoblasts into myocytes, they were cultured for 3 days by replacing with a differentiation medium (DMEM+2% FBS+1% P/S). The medium was replaced once daily, and the cells were cultured at 37° C.
The cell medium was removed, and the cells were washed with PBS. After washing, a methanol: PBS reagent in a 1:1 volume ratio was treated, followed by fixation for 2 minutes. Additionally, after a methanol: PBS reagent in a 2:1 volume ratio was added, fixation was followed for additional 2 minutes. After 2 minutes, 0.04% Giemsa reagent was added, and then the cells were left for 30 minutes, washed with PBS after 30 minutes, and observed under a microscope, with 3 photographs taken for each cell (300×). In the photographs taken, the number of fused nuclei in the root canal cells was counted, the number of nuclei of total cells was counted, and the number of fused nuclei was divided by the number of nuclei of the total cells to obtain the % value.

[8] = system: gastrocnemius muscle of C57BL/6 mice; test: Myoregeneration after Ac-MIF2-NH2 injection and cardiotoxin (CTX) muscle injury; assay type: in vivo, mouse
Description: The male C57BL/6 mice were purchased from Dae Han Bio Link Co., Ltd., four of which per cage were kept in a temperature-controlled room with a 12-hour light cycle. The animals were fed with a standard rodent diet containing 4.0% (wt/wt) total fat (Rodent NIH-31 Open Formula Auto; Zeigler Bros., Inc., Gardners, PA, USA) and water. All experiments involving animals complied with the guidelines (YUMC-AEC2015-006) issued by the Animal Control Committee of Youngnam University's Animal Research Institute. The MSTN knock-out mouse was provided by a laboratory at Seoul National University. Normal, MSTN+/−(heterozygous), and MSTN−/−(homozygous) adipose tissues were fixed by collecting from 6-week-old mice and stored at −80° C. until required for analysis.
Muscle tissues containing paraffin was subjected to deparaffinization with xylene and ethanol and hydration, respectively, and the tissue was soaked in 0.3% hydrogen peroxide water (H2O2)/methanol for 15 minutes to stop endogenous peroxidase activity. Then, tissues were stained with hematoxylin/eosin for morphological observation or reacted with 1% normal goat serum at room temperature for 1 hour to block a reaction with non-specific antibodies, followed by a reaction with the primary antibody (1:50) at 4° C. for over 16 hours. After 16 hours, washing was performed 3 times with PBS, followed by a reaction with secondary antibody (1:100) with HRP conjugated at room temperature for 1 hour. Horse radish peroxidase-conjugated streptavidin was added to detect the expression of the protein, followed by observation under a microscope.
In order to observe the myoregeneration effect following MIF peptide injection, mice were injected with Ac-MIF2-NH2 peptide and injected/uninjected with cardiotoxin (hereinafter referred to as CTX) into the muscle, followed by observation of the morphology and regeneration of the muscle. A day after C57BL/6 mice were injected with Ac-MIF2-NH2 peptide (1.125 mM), […] cardiotoxin was injected into the gastrocnemius. Muscle tissues were sampled 7 days after CTX injection.
Paraffin-embedded muscle sections were deparaffinized using xylene, rehydrated using a concentration gradient of ethanol, stained with hematoxylin and eosin, observed under an optical microscope, magnified at 400× scale, and photographed, followed by measurement of the diameter of muscle fibers using Image J software.

[9] = C2C12 differentiation, versus control
[10] = C2C12 myodifferentiation, FIG. 8
[11] = injected muscle, 7 days after CTX, FIG. 10B
[12] = C2C12 myodifferentiation, FIG. 6

## Ac-VDFEAGDWFW-NH2 [Ac-MIF2-NH2, MIF2 peptide with acetylated N-terminus and amidated C-terminus]
C2C12 cells [1]
  increase in cell proliferation compared to cells without peptide treatment: 33%
3T3L1 cells [2]
  decrease in proliferation compared to cells without peptide treatment: 10%
3T3L1 cells [3]
  expression of FMOD; MSTN; and lipogenesis-related mRNAs and proteins (CD36, CD163, and PPARγ): decreased
C2C12 cells [4]
  increase in scratch recovery degree compared to untreated cells: 26%
3T3L1 cells [5]
  decrease in fat accumulation (Oil-red O intensity) compared to cells without peptide treatment: 9%
C2C12 cells [6]; [9]
  MSTN protein expression: reduced
  mRNA and protein expression of MYOD, MYOG, MYL2, and MYH: increased
C2C12 cells [6]; [10]
  ACVRIIB protein expression: reduced
  gene expression of Atrogin1 and MuRF1: reduced
C2C12 cells [7]; 3 days
  increase in fusion index compared to untreated cells: 14%
  root canal formation compared to untreated cells: increased
C2C12 cells [7]; C2C12, myodifferentiation medium, 3 days, FIG. 9
  fusion index compared to untreated cells: increased
[8]; 7 days after CTX injection
  muscle weight compared to muscle without injection: no significant difference
[8]; 7 days after CTX, FIG. 10C
  diameter of the muscle fibers compared to muscles without injection: increased
[8]; CTX + Ac-MIF2-NH2, 7 days after CTX injection
  muscle weight: 0.147 ± 0.163 g
[8]; injected muscle, 7 days after CTX, FIG. 10A
  mRNA expression of Pax7, MYOD, MYOG, MYL2, and MYH in muscle: significantly increased
[8]; [11]
  MSTN protein expression in muscle: decreased
  protein expression of Pax7, MYOD, MYOG, MYL2, and MYH in muscle: increased

## MSTN protein: myostatin protein that inhibits the proliferation and differentiation of myoblasts [reference compound]
C2C12 cells [1]; C2C12, MSTN protein in proliferation medium, FIG. 3
  proliferation of cells compared to untreated cells: reduced
C2C12 cells [7]; C2C12, MSTN protein in differentiation medium, FIG. 3
  differentiation of cells compared to untreated cells: reduced
C2C12 cells [7]; 3 days
  root canal formation compared to untreated cells: reduced

## VDFEAGDWFW [MIF2]
C2C12 cells [1]
  increase in cell proliferation compared to cells without peptide treatment: 6%
C2C12 cells [4]
  increase in scratch recovery degree compared to untreated cells: 22%
C2C12 cells [6]; [9]
  expression of MSTN mRNA and proteins: did not show any significant differences
  mRNA and protein expression of MYOD, MYOG, MYL2, and MYH: increased
C2C12 cells [6]; [12]
  expression of ACVRIIB mRNA: decreased
  expression of MuRF1 and ACVRIIB proteins: decreased
C2C12 cells [7]; 3 days
  increase in fusion index compared to untreated cells: 12%
